The source of these data is ChEMBL document CHEMBL4368890, “Progress toward allosteric ligands of metabotropic glutamate 7 (mGlu7) receptor: 2008-present” (Medchemcomm, 2019).

The target of data set [1] is T1, Metabotropic glutamate receptor 7 (Homo sapiens, UniProt Q14831). As to the kind of experiment: Agonist activity at mGlu7 (unknown origin).
Data set [2] addresses T1, Metabotropic glutamate receptor 7. Kind of data set: Negative allosteric modulator activity at human mGlu7 assessed as reduction in Ca2+ mobilization by HTS assay. Type of data set: functional.
In data set [3] the target is Metabotropic glutamate receptor 1 (Homo sapiens, UniProt Q13255). Kind of data set: Allosteric activity at mGlu1 (unknown origin).
Data set [4] has as its target Metabotropic glutamate receptor 2 (Homo sapiens, UniProt Q14416). As to the kind of experiment: Allosteric activity at mGlu2 (unknown origin).
Data set [5] deals with T2, Metabotropic glutamate receptor 3 (Homo sapiens, UniProt Q14832). Kind of data set: Allosteric activity at mGlu3 (unknown origin).
T2 sequence (Q14832 whole entry): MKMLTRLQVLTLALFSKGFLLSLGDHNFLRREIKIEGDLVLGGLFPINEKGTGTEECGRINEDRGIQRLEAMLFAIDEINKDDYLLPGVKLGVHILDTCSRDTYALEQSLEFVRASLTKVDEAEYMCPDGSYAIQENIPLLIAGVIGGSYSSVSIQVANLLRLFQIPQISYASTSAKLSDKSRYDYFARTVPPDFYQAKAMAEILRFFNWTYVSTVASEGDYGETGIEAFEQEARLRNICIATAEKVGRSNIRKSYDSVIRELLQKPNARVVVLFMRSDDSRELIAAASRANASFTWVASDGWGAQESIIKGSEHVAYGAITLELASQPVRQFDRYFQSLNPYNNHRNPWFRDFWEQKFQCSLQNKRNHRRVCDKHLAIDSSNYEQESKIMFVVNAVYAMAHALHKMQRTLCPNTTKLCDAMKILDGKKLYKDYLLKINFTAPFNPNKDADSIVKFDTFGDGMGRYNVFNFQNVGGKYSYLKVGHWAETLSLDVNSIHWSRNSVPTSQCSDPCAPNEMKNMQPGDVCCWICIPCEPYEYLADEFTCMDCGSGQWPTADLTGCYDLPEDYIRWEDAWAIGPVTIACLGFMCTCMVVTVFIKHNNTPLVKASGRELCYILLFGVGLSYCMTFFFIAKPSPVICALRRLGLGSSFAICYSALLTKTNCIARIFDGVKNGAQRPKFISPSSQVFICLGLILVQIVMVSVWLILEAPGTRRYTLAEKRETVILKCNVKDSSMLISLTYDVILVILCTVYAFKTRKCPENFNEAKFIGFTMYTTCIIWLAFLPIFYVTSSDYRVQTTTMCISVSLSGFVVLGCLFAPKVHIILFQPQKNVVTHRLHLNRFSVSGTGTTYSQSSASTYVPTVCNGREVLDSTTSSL
Data set [6] deals with T3, Metabotropic glutamate receptor 5 (Homo sapiens, UniProt P41594). As to the kind of experiment: Allosteric activity at mGlu5 (unknown origin).
T3 sequence (P41594 whole entry): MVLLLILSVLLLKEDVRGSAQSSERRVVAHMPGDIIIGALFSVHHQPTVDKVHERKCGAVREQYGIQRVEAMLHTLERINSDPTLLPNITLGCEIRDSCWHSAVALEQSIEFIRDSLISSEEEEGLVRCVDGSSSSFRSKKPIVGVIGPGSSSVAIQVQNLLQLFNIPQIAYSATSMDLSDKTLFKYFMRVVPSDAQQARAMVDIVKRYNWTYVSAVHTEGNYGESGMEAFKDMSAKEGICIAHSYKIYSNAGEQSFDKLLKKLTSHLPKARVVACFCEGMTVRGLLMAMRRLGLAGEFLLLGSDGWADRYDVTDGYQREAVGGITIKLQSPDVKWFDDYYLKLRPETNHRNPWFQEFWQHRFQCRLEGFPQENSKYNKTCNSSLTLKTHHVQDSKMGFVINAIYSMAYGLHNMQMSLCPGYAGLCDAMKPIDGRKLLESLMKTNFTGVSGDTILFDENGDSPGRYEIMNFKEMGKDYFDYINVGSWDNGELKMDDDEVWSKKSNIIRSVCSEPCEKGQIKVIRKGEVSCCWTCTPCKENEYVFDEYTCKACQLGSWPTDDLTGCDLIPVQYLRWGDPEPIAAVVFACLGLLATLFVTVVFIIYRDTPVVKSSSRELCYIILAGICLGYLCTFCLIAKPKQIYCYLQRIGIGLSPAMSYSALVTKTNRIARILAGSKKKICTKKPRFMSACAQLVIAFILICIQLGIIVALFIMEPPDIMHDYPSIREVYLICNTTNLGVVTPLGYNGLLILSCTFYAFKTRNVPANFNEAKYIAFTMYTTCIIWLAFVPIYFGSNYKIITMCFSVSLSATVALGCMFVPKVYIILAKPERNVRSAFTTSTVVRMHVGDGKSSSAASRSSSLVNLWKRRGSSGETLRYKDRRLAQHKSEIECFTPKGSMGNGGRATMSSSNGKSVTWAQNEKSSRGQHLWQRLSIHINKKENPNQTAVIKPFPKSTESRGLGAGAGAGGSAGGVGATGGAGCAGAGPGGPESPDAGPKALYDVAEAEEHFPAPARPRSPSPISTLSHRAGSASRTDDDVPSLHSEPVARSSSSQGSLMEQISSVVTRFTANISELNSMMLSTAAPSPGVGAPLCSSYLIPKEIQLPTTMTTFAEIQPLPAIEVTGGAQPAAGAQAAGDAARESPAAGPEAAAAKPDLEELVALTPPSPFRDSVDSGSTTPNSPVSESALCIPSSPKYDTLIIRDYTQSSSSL
The target in data set [7] is Metabotropic glutamate receptor 6 (Homo sapiens, UniProt O15303). Kind of data set: Allosteric activity at mGlu6 (unknown origin).
Metabotropic glutamate receptor 6, sequence (O15303 whole entry): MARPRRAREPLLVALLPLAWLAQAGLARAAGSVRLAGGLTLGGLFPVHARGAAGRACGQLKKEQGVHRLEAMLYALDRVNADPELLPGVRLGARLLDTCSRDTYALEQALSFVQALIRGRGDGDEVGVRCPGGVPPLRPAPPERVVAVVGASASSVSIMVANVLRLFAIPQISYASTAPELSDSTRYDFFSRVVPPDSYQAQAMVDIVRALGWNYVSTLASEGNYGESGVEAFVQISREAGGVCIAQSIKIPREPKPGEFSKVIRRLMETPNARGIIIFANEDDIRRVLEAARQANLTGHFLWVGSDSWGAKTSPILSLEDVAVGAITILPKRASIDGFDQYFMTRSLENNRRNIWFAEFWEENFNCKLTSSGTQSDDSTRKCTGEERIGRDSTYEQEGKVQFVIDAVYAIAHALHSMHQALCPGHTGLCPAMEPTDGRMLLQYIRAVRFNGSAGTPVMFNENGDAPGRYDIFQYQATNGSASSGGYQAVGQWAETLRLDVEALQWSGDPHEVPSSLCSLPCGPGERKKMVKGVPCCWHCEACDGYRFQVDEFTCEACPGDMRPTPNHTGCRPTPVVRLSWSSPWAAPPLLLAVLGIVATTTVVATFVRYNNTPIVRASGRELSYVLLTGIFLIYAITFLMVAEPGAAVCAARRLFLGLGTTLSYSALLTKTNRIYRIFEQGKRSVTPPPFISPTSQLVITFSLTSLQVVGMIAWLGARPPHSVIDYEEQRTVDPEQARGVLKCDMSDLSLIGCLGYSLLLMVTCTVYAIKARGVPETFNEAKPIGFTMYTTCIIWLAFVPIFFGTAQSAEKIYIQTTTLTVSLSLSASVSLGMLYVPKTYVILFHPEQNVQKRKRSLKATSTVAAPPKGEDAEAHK
Data set [8] can be described thus: […], Kp in mouse at 10 mg/kg, ip after 1 hr. The data set is classed as ADME, organism-based. The note with it: in vivo.
Data set [9] addresses T1, Metabotropic glutamate receptor 7. Kind of data set: Agonist activity at human mGlu7.
Data set [10] deals with Metabotropic glutamate receptor 7 (Mus musculus, UniProt Q68ED2). As to the kind of experiment: Agonist activity at mouse mGlu7.
Metabotropic glutamate receptor 7 (Mus musculus, UniProt Q68ED2), sequence (Q68ED2 whole entry): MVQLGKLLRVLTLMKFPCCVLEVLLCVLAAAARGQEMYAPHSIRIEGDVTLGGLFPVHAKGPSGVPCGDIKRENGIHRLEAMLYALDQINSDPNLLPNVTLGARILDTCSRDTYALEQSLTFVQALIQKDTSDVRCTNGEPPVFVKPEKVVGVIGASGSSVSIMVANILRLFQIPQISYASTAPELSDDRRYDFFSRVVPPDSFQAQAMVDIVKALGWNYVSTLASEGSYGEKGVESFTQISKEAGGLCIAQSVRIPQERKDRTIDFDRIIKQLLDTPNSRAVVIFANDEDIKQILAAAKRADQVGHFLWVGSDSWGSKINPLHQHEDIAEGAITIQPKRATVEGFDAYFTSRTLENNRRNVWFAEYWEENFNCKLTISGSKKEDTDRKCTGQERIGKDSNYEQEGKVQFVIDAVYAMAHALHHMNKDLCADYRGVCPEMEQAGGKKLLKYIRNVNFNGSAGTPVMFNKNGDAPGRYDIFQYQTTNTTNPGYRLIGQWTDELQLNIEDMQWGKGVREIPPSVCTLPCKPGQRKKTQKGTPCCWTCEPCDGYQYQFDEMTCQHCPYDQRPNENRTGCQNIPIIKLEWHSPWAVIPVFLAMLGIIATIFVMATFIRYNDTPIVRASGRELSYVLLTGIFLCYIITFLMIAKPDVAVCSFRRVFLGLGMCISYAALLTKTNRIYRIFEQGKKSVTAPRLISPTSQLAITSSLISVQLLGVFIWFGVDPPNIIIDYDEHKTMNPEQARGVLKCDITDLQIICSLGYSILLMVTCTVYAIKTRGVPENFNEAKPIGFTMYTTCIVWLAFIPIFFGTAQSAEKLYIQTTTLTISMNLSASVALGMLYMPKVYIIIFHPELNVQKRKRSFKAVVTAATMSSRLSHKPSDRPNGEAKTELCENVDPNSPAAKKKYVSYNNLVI
Data set [11] concerns the target T2, Metabotropic glutamate receptor 3. As to the kind of experiment: Allosteric agonist activity at human mGlu3 expressed in CHO cells assessed as reduction in forskolin-induced cAMP production after 30 mins by cAMP reagent-based assay. The data set is classed as functional, cell-based.
For data set [12], the target named is T3, Metabotropic glutamate receptor 5. Kind of data set: Allosteric agonist activity at human mGlu5 expressed in CHO cells assessed as reduction in forskolin-induced cAMP production after 30 mins by cAMP reagent-based assay. The data set is classed as functional, cell-based.
The target of data set [13] is T1, Metabotropic glutamate receptor 7. As to the kind of experiment: Allosteric agonist activity at human mGlu7 expressed in CHO cells assessed as reduction in forskolin-induced cAMP production after 30 mins by cAMP reagent-based assay. The data set is classed as functional, cell-based.
Data set [14] shares this target. Kind of data set: Allosteric agonist activity at human mGlu7 expressed in CHO cells assessed as reduction in forskolin-induced cAMP production after 30 mins by cAMP reagent-based assay relative to control. The data set is classed as functional, cell-based.
Data set [15] can be described thus: Lipophilicity, logP of the compound. The data set is classed as physicochemical. The note with it: octanol/water.
Data set [16] addresses Metabotropic glutamate receptor 4 (Homo sapiens, UniProt Q14833). As to the kind of experiment: Agonist activity at mGlu4 (unknown origin).
Data set [17] addresses Metabotropic glutamate receptor 8 (Rattus norvegicus, UniProt P70579). As to the kind of experiment: Agonist activity at rat mGlu8 receptor expressed in HEK cell co-expressing Galpha15 (unknown origin) assessed as […] intracellular Ca2+ mobilization by Fluo-4-AM dye based fluorescence assay. The data set is classed as functional.
In data set [18] the target is T1, Metabotropic glutamate receptor 7. As to the kind of experiment: Agonist activity at human mGlu7 expressed in CHO cells assessed as reduction in forskolin-induced cAMP production. Type of data set: functional, cell-based.

T1 sequence (Q14831 whole entry): as the sequence (Q68ED2 whole entry) above, with G5R, V27A, T488S, P520A, N578D counted along it
Metabotropic glutamate receptor 2, sequence (Q14416 whole entry): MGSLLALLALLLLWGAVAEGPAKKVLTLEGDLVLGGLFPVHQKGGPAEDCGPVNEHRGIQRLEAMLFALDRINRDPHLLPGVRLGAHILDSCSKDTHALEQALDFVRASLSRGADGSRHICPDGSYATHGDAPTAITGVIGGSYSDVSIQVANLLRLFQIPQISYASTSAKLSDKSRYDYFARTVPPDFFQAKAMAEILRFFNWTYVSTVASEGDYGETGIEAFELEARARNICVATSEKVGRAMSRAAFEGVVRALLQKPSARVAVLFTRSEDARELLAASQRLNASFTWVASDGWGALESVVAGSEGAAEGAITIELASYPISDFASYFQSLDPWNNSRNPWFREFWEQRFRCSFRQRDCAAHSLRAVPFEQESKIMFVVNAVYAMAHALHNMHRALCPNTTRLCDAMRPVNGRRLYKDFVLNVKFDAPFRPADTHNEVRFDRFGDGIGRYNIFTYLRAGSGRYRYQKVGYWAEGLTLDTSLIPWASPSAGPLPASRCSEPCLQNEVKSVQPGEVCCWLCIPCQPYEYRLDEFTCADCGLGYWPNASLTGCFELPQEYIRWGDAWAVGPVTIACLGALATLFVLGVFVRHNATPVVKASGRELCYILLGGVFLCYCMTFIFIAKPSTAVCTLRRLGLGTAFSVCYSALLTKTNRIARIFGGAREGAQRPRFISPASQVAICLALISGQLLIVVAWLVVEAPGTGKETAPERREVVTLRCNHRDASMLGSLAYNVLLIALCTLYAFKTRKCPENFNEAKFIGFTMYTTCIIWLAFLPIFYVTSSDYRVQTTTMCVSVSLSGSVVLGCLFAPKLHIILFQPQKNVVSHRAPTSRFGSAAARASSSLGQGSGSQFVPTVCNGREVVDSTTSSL

Compound `O=C(NCc1ccccc1F)C1c2ccccc2CC(=O)N1CC1CC1` (stereo not given) came in with an EC50 in data set [1] of 29.2 nM.
Still for that read-out and setting: under `C[C@H](C(=O)NC1COc2ccc(F)cc2C1O)c1ccccc1` (stereo not given in full) stands 1.21 nM.
Take `CCc1nc2c(o1)CC(c1ccc(C)cc1C)CC2=O` (stereo not given): the IC50 in [2] was 63 nM.
With `COc1ccc(-c2c(C)nn3c(C(F)(F)F)cc(C)nc23)c(F)c1F`, the EC50 in data set [3], in data set [4], in data set [5], in [6] and in [7] was over 10000 nM each time. Besides, the IC50 in data set [3], in [4], in [5], in data set [6] and in [7] was over 10000 nM each time. The Kp at 1 h in data set [8] was found to be 2.1.
On to `C[C@H](C(=O)NC1COc2ccccc2C1S(C)(=O)=O)c1ccc(F)cc1` (stereo not given in full), for which the results for the EC50 in data set [9] and in data set [10] were 6.9 nM and 1.8 nM, respectively.
Take `CNC(=O)N1CCCC(CN2CCC(OC(c3ccccc3)c3ccccc3)CC2)C1` (stereo not given): in data set [11], the pEC50 is given as 6.2. The EC50 in data set [12] was 631 nM.
Take `c1ccc(C(NCCNC(c2ccccc2)c2ccccc2)c2ccccc2)cc1`: the EC50 in data set [13] was 158 nM. The Emax in [14] stood at 62%. In data set [15], the logP came out at 5.9.
In [16], `CCc1nn2c(C(F)(F)F)cc(C)nc2c1-c1cc(F)c(OC)cc1F` showed an EC50 of 2100 nM.
Turning to `CNCC[C@H](NCC(=O)N1CCCc2ccccc21)c1ccccc1`, the logP in data set [15] was found to be 3.
Take `COC(=O)c1ccc(-n2c(C)cc(C(=O)CSc3ccc(NC(C)=O)cc3)c2C)cc1`: the EC50 in data set [17] came to 930 nM.
Regarding `O=C(C[C@H](NCC1CC1)c1ccccc1)N1CCCOc2ccccc21`, in [18], the 50% effective concentration (EC50) is 1 nM.
